According to patent US20220024882A1, “NOVEL TUMOR ANTIGEN BINDING AGENTS AND USES THEREOF” (ITM Isotopen Technologien München AG, priority 2018, published 2022):

Key:
[1] = test system: PC-3 PIP/flu tumor-bearing mice; experiment: Biodistribution study in PC-3 PIP/flu tumor-bearing mice; format: in vivo, athymic nude Balb/c mice; details: for Blood / Bone / Heart / Intestines / Kidneys / Liver / Lung / Muscle / Salivary glands / Spleen / Stomach / Tumor-to-blood / Tumor-to-kidney / Tumor-to-liver: PC-3 PIP/flu tumor-bearing mice; for PC-3 flu Tumor: PSMA-negative tumor xenograft; for PC-3 flu Tumor / PC-3 PIP Tumor: mice; for PC-3 PIP Tumor: PSMA-positive tumor xenograft
Procedure: (§1) In vivo experiments were approved by the local veterinarian department and conducted in accordance with the Swiss law of animal protection. Mice were obtained from Charles River Laboratories, Sulzfeld, Germany, at the age of 5-6 weeks. Female, athymic nude Balb/c mice were subcutaneously inoculated with PSMA-positive PC-3 PIP cells (6×10^6 cells in 100 μL Hank's balanced salt solution (HBSS) with Ca^2+/Mg^2+) on the right shoulder and with PSMA-negative PC-3 flu cells (5×10^6 cells in 100 μL HBSS Ca^2+/Mg^2+) on the left shoulder. Two weeks later, the tumors reached a size of about 80-300 mm^3 suitable for the performance of the biodistribution studies.
Biodistribution studies were performed 12-15 days after PC-3 PIP/flu tumor cell inoculation. […] The radioligands were injected in a lateral tail vein in a volume of 100-200 μL. Mice were euthanized at different time points after injection (p.i.) of the radioligands. Selected tissues and organs were collected, weighed and measured using a γ-counter. The results were decay-corrected and listed as a percentage of the injected activity per gram of tissue mass (% IA/g) (Table 3 and 4).
Mice were obtained from Charles River Laboratories, Sulzfeld, Germany, at the age of 5-6 weeks. Female, athymic nude BALB/c mice were subcutaneously inoculated with PSMA-positive PC-3 PIP cells (6×10^6 cells in 100 μL Hank's balanced salt solution (HBSS)) on the right shoulder and with PSMA-negative PC-3 flu cells (5×10^6 cells in 100 μL HBSS) on the left shoulder. Two weeks later, the tumors reached a size of about 80-300 mm^3 suitable for the performance of the biodistribution and imaging studies.
Biodistribution studies were performed 12-15 days after PC-3 PIP/flu tumor cell inoculation. ^177Lu-Ibu-sPSMA was diluted in 0.9% NaCl containing 0.05% bovine serum albumin (BSA) to prevent adhesion to the vial and syringe material. The radioligand was injected in a lateral tail vein in a volume of 100 μL. Mice were euthanized at different time points after injection (p.i.) of the radioligand. Selected tissues and organs were collected, weighed and measured using a γ-counter. The results were decay-corrected and listed as a percentage of the injected activity per gram of tissue mass (% IA/g) (Table 6, FIG. 18).

[2] = Whole-body activity measurements, tumor-bearing mice; format: in vivo, athymic nude Balb/c mice; details: 4 h p.i., 30 MBq, 1 nmol i.v., activity right after injection = 100%
Procedure: as §1, with “imaging” for “biodistribution”
The single radioligands (specific activity: 30 MBq/nmol) were diluted in 0.9% NaCl containing 0.05% bovine serum albumin (BSA) and i.v. injected into PC-3 PIP/flu tumor bearing mice (30 MBq, 1 nmol, 100 μL) for SPECT/CT imaging purposes. The mice were measured in a dose calibrator at 4 h, 24 h, 48 h and 72 h p.i., respectively.

SMILES: CC(C)Cc1ccc(C(C)C(=O)NC(CC(=O)NCCCCC(NC(=O)CN2CCN(CC(=O)O)CCN(CC(=O)O)CCN(CC(=O)O)CC2)C(=O)NCC2CCC(C(=O)NC(Cc3ccc4ccccc4c3)C(=O)NCCCCC(NC(=O)NC(CCC(=O)O)C(=O)O)C(=O)O)CC2)C(=O)O)cc1 (stereo not drawn) [^177Lu-Ibu-Dβ-PSMA, metal not drawn]
- Blood ([1]; 4 h p.i.): 13.2±1.15 % IA/g
- Bone ([1]; 4 h p.i.): 1.87 ± 0.16 % IA/g
- Heart ([1]; 4 h p.i.): 4.19 ± 0.23 % IA/g
- Intestines ([1]; 4 h p.i.): 1.81 ± 0.23 % IA/g
- Kidneys ([1]; 4 h p.i.): 32.2 ± 2.46 % IA/g
- Liver ([1]; 4 h p.i.): 3.87 ± 0.16 % IA/g
- Lung ([1]; 4 h p.i.): 8.55 ± 3.30 % IA/g
- Muscle ([1]; 4 h p.i.): 1.79 ± 0.48 % IA/g
- Salivary glands ([1]; 4 h p.i.): 3.33 ± 0.15 % IA/g
- Spleen ([1]; 4 h p.i.): 2.60 ± 0.23 % IA/g
- Stomach ([1]; 4 h p.i.): 1.51 ± 0.18 % IA/g
- Tumor-to-blood ([1]; 4 h p.i.): 5.03±0.73
- Tumor-to-kidney ([1]; 4 h p.i.): 2.06 ± 0.23
- Tumor-to-liver ([1]; 4 h p.i.): 17.0 ± 1.73
- PC-3 flu Tumor ([1]; 4 h p.i.): 3.86 ± 0.18 % IA/g
- PC-3 PIP Tumor ([1]; 4 h p.i.): 65.7 ± 7.31 % IA/g
- Blood ([1]; 24 h p.i.): 1.28 ± 0.05 % IA/g
- Bone ([1]; 24 h p.i.): 0.26 ± 0.03 % IA/g
- Heart ([1]; 24 h p.i.): 0.57 ± 0.02 % IA/g
- Intestines ([1]; 24 h p.i.): 0.40 ± 0.07 % IA/g
- Kidneys ([1]; 24 h p.i.): 21.3 ± 1.53 % IA/g
- Liver ([1]; 24 h p.i.): 0.69 ± 0.07 % IA/g
- Lung ([1]; 24 h p.i.): 1.17 ± 0.06 % IA/g
- Muscle ([1]; 24 h p.i.): 0.22 ± 0.04 % IA/g
- Salivary glands ([1]; 24 h p.i.): 0.61 ± 0.02 % IA/g
- Spleen ([1]; 24 h p.i.): 1.03 ± 0.08 % IA/g
- Stomach ([1]; 24 h p.i.): 0.48 ± 0.13 % IA/g
- Tumor-to-blood ([1]; 24 h p.i.): 83.6 ± 9.06
- Tumor-to-kidney ([1]; 24 h p.i.): 4.90 ± 0.29
- Tumor-to-liver ([1]; 24 h p.i.): 151 ± 3.37
- PC-3 flu Tumor ([1]; 24 h p.i.): 0.79 ± 0.12 % IA/g
- PC-3 PIP Tumor ([1]; 24 h p.i.): 106±9.70 % IA/g
- whole-body retention of radioactivity [2]: 49%
